Target: T1, Murine TRPV1 (Mus musculus, UniProt Q704Y3)
T1 construct: full-length channel, eYFP fused to C terminus (pEYFP-N3), expressed in HEK293T; cDNA gift of Michael X. Zhu; homotetramer
Assay: whole-cell patch clamp, Hill fit
Assay type: cell-based

T1 sequence (Q704Y3 whole entry, the tested form may be a part): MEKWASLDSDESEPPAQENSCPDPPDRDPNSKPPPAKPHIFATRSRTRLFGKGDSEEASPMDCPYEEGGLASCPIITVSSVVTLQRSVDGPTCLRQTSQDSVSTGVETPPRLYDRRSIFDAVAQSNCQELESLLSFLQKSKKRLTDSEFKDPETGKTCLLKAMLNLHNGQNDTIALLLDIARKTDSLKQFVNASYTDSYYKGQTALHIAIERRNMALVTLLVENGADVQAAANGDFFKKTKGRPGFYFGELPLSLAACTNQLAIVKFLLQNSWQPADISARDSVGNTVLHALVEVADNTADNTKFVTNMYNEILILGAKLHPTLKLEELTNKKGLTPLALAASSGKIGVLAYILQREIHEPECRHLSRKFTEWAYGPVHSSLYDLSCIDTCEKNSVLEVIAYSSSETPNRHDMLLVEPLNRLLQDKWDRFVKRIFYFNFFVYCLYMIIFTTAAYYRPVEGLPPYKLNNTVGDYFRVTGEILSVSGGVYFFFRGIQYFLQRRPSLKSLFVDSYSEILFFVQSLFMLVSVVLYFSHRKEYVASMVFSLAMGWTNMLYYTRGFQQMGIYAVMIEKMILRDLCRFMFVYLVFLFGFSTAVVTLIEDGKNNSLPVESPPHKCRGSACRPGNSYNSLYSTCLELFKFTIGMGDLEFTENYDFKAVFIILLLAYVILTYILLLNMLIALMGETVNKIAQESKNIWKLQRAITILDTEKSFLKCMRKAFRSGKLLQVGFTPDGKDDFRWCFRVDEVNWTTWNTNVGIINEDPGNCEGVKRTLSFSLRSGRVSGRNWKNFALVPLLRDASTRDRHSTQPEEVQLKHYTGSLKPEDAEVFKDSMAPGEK

Compound: COc1cc(CNC(=O)CCCC/C=C/C(C)C)ccc1O [capsaicin]
- EC50: 0.186 µM
